From publication PMC7029851, “Antibacterial activity of novel dual bacterial DNA type II topoisomerase inhibitors” (PLoS ONE, 2020)
≈ marks a conversion by molar mass, not a printed value. Where “and” joins values, the source holds several entries; their conditions need not be identical. Identical values can stand only once. Counter-ions that a name gives are not always drawn. Like-named read-outs stand apart in the source and are kept apart here.

Experiments:
H. influenzae ATCC 49766 = experiment: MIC, broth microdilution; type: cell-based; conditions: Haemophilus influenzae, ATCC49766; H. influenzae ATCC 49766, ciprofloxacin-susceptible
Method: (§1) MICs were determined by the broth microdilution method (the agar dilution method was used only for N. gonorrhoeae) according to CLSI guidelines.

E. faecalis ATCC 29212 = experiment: MIC, broth microdilution; type: cell-based; conditions: Enterococcus faecalis, ATCC29212; E. faecalis ATCC 29212, ciprofloxacin-susceptible
Method: as §1

[1] = system: K. pneumoniae ATCC 700603; experiment: MIC, broth microdilution; type: cell-based; conditions: Klebsiella pneumoniae, ATCC700603; K. pneumoniae ATCC 700603, ciprofloxacin-susceptible
Method: as §1

E. coli ATCC 25922 = experiment: MIC, broth microdilution; type: cell-based; conditions: Escherichia coli, ATCC25922; E. coli ATCC 25922, ciprofloxacin-susceptible
Method: as §1

S. aureus BAA-1720 = experiment: MIC, broth microdilution; type: cell-based; conditions: Staphylococcus aureus, BAA1720; S. aureus BAA-1720, ciprofloxacin-resistant
Method: as §1

S. pneumoniae ATCC 49619 = experiment: MIC, broth microdilution; type: cell-based; conditions: Streptococcus pneumoniae, ATCC49619; S. pneumoniae ATCC 49619, ciprofloxacin-susceptible
Method: as §1

P. aeruginosa ATCC 27853 = experiment: MIC, broth microdilution; type: cell-based; conditions: Pseudomonas aeruginosa, ATCC27853; P. aeruginosa ATCC 27853, ciprofloxacin-susceptible
Method: as §1

[2] = system: N. gonorrhoeae clinical isolates (n = 38); experiment: microbe, parasite or virus in culture; type: cell-based, Neisseria gonorrhoeae; conditions: for MIC50 / MIC90: Neisseria gonorrhoeae
Method: (§2) The bacterial reference strains used in this study were purchased from ATCC (American Type Culture Collection) via LGC Standards (Middlesex, UK). […] Clinical MDR isolates were provided by Aptuit, the IHMA Europa Sàrl repository (Epalinges, Switzerland) and the Statens Serum Institute (Copenhagen, Denmark).
as §1
(§3) The results obtained using clinical isolates are reported as MIC50 and MIC90 values.

S. aureus DNA gyrase = target: T1, S. aureus DNA gyrase (Staphylococcus aureus, UniProt P20831); experiment: S. aureus DNA gyrase supercoiling gel assay; type: biochemical
T1 construct: purchased Inspiralis (Norwich, UK)
Method: (§4) S. aureus and E. coli DNA gyrase supercoiling and topo IV decatenation assay kits, as well as human topoisomerase II decatenation assay kits, were provided by Inspiralis (Norwich, UK). Assays were performed according to the manufacturer’s instructions. The compounds were serially diluted (1:3 dilutions starting from a 300 μM final concentration) and assayed in a reaction mixture to obtain concentration-response curves in two different replicate experiments. The final concentration of DMSO in the assays was 1% (v/v). The reactions were terminated by the addition of 30 μl chloroform/isoamyl alcohol (26:1) and 30 μl Stop Dye (40% sucrose, 100 mM Tris HCl pH 7.5, 1 mM EDTA, 0.5 μg/ml bromophenol blue), after which the samples were loaded onto a 1.0% TAE ([…]) gel that was then run at 80 V for 2 hours. DNA bands were visualized by ethidium bromide staining the gel for 10 minutes, which was then destained for 10 minutes in water and analysed using gel documentation equipment (Syngene, Cambridge, UK). The DNA in each band was quantitated using Syngene Gene Tools software. Raw gel data (fluorescent band volumes) were converted by the software to percentages of the control (the fully supercoiled or decatenated DNA band). […] The global curve fit non-linear regression tool was used to calculate the IC50 values. The results are expressed as the average values obtained after calculating the IC50 from each replicate run.

E. coli Topoisomerase IV = target: T2, E. coli Topoisomerase IV (Escherichia coli, UniProt P0AFI2); experiment: E. coli topoisomerase IV decatenation gel assay; type: biochemical
T2 construct: purchased Inspiralis (Norwich, UK)
Method: as §4

[3] = target: T3, S. aureus Topoisomerase IV (Staphylococcus aureus, UniProt P0C1U9); experiment: S. aureus topoisomerase IV decatenation gel assay; type: biochemical
T3 construct: purchased Inspiralis (Norwich, UK)
Method: as §4

N. gonorrhoeae WHO L = experiment: MIC, agar dilution; type: cell-based; conditions: Neisseria gonorrhoeae, ciprofloxacin-resistant
Method: as §1

N. gonorrhoeae WHO N = experiment: MIC, agar dilution; type: cell-based; conditions: Neisseria gonorrhoeae, ciprofloxacin-resistant
Method: as §1

[4] = system: N. gonorrhoeae ATCC 19424; experiment: MIC, agar dilution; type: cell-based; conditions: Neisseria gonorrhoeae, ATCC19424; N. gonorrhoeae ATCC 19424, ciprofloxacin-susceptible
Method: as §1

[5] = system: N. gonorrhoeae ATCC 49226; experiment: MIC, agar dilution; type: cell-based; conditions: Neisseria gonorrhoeae, ATCC49226; N. gonorrhoeae ATCC 49226, ciprofloxacin-susceptible
Method: as §1

N. gonorrhoeae WHO K = experiment: MIC, agar dilution; type: cell-based; conditions: Neisseria gonorrhoeae, ciprofloxacin-resistant
Method: as §1

Human Topoisomerase II = target: T4, Human Topoisomerase II (Homo sapiens, UniProt P11388); experiment: Human topoisomerase II decatenation gel assay; type: biochemical
T4 construct: purchased Inspiralis (Norwich, UK)
Method: as §4

[6] = system: E. faecalis clinical isolates (n = 12) vanA (6)/vanB (6); experiment: MIC, multidrug-resistant clinical isolates; type: cell-based; conditions: Enterococcus faecalis; for MIC: read-out: MIC range
Method: as §2, §1, §3

[7] = system: E. faecium clinical isolates (n = 12) vanA (6)/vanB (6); experiment: MIC, multidrug-resistant clinical isolates; type: cell-based; conditions: Enterococcus faecium; for MIC: read-out: MIC range
Method: as §2, §1, §3

E. coli TolC- mutant = experiment: microbe, parasite or virus in culture; type: cell-based; conditions: Escherichia coli
Method: as §2, §1

S. aureus ATCC 29213 = experiment: MIC, broth microdilution; type: cell-based, Staphylococcus aureus; conditions: Staphylococcus aureus
Method: as §1

E. coli DNA gyrase = target: T5, E. coli DNA gyrase (Escherichia coli, UniProt P0AES4); experiment: E. coli DNA gyrase supercoiling gel assay; type: biochemical
T5 construct: purchased Inspiralis (Norwich, UK)
Method: as §4

[8] = replicate Assay 1, read-out: IC50 S.aureus gyrase Supercoiling, Assay 1
[9] = replicate Assay 2, read-out: IC50 S.aureus gyrase Supercoiling, Assay 2
[10] = average of two replicate experiments, read-out: IC50 E. coli Topoisomerase IV decatenation (average)
[11] = replicate Assay 1, read-out: IC50 E. coli Topoisomerase IV decatenation, Assay 1
[12] = replicate Assay 2, read-out: IC50 E. coli Topoisomerase IV decatenation, Assay 2
[13] = replicate Assay 1, read-out: IC50 S. aureus Topoisomerase IV decatenation, Assay 1
[14] = replicate Assay 2, read-out: IC50 S. aureus Topoisomerase IV decatenation, Assay 2
[15] = average of two replicate experiments, read-out: IC50 Human Topoisomerase II decatenation (average)
[16] = replicate Assay 1, read-out: IC50 Human Topoisomerase II (TopoII) decatenation, Assay 1
[17] = replicate Assay 2, read-out: IC50 Human Topoisomerase II (TopoII) decatenation, Assay 2
[18] = ATCC29213, S. aureus ATCC 29213, ciprofloxacin-susceptible
[19] = average of two replicate experiments, read-out: IC50 E. coli Gyrase Supercoiling (average)
[20] = replicate Assay 1, read-out: IC50 E. coli gyrase Supercoiling, Assay 1
[21] = replicate Assay 2, read-out: IC50 E. coli gyrase Supercoiling, Assay 2

T3 sequence (P0C1S7 whole entry): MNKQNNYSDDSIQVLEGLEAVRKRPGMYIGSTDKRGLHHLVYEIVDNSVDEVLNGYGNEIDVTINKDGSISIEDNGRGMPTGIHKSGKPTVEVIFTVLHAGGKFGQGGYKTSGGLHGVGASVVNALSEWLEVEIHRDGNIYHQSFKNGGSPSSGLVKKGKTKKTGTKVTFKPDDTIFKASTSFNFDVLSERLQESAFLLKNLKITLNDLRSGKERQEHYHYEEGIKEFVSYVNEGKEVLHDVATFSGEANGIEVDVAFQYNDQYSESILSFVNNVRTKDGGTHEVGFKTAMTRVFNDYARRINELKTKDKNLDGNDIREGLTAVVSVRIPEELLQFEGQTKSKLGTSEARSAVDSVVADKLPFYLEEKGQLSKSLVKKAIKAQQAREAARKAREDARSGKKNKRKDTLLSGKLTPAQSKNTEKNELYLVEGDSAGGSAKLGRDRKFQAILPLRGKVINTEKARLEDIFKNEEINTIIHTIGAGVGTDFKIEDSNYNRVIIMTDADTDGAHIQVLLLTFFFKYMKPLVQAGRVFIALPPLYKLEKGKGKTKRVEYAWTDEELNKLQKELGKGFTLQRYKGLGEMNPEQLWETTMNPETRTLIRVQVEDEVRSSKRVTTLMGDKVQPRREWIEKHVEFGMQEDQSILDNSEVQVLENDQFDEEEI
T3 sequence (P0C1U9 whole entry): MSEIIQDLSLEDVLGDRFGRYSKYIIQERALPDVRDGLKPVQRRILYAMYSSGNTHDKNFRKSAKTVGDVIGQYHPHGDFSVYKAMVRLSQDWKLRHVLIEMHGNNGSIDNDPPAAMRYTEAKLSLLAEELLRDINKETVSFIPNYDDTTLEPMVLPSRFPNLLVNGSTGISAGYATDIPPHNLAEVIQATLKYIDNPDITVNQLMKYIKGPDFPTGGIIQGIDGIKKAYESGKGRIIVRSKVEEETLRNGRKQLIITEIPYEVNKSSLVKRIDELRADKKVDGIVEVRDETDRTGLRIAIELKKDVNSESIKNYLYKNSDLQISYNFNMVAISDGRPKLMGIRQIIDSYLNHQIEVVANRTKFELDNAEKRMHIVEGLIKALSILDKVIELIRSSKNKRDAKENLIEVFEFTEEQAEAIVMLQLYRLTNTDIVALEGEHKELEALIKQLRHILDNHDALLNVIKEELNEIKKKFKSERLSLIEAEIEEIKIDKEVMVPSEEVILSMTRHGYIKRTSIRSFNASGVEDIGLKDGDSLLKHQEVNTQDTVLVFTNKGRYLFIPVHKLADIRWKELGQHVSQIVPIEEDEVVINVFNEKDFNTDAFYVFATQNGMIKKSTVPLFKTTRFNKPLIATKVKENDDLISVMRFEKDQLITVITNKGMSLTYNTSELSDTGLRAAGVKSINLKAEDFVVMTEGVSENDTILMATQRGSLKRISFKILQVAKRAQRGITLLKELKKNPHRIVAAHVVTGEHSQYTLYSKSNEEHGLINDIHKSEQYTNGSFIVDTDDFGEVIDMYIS
T4 sequence (P11388 whole entry): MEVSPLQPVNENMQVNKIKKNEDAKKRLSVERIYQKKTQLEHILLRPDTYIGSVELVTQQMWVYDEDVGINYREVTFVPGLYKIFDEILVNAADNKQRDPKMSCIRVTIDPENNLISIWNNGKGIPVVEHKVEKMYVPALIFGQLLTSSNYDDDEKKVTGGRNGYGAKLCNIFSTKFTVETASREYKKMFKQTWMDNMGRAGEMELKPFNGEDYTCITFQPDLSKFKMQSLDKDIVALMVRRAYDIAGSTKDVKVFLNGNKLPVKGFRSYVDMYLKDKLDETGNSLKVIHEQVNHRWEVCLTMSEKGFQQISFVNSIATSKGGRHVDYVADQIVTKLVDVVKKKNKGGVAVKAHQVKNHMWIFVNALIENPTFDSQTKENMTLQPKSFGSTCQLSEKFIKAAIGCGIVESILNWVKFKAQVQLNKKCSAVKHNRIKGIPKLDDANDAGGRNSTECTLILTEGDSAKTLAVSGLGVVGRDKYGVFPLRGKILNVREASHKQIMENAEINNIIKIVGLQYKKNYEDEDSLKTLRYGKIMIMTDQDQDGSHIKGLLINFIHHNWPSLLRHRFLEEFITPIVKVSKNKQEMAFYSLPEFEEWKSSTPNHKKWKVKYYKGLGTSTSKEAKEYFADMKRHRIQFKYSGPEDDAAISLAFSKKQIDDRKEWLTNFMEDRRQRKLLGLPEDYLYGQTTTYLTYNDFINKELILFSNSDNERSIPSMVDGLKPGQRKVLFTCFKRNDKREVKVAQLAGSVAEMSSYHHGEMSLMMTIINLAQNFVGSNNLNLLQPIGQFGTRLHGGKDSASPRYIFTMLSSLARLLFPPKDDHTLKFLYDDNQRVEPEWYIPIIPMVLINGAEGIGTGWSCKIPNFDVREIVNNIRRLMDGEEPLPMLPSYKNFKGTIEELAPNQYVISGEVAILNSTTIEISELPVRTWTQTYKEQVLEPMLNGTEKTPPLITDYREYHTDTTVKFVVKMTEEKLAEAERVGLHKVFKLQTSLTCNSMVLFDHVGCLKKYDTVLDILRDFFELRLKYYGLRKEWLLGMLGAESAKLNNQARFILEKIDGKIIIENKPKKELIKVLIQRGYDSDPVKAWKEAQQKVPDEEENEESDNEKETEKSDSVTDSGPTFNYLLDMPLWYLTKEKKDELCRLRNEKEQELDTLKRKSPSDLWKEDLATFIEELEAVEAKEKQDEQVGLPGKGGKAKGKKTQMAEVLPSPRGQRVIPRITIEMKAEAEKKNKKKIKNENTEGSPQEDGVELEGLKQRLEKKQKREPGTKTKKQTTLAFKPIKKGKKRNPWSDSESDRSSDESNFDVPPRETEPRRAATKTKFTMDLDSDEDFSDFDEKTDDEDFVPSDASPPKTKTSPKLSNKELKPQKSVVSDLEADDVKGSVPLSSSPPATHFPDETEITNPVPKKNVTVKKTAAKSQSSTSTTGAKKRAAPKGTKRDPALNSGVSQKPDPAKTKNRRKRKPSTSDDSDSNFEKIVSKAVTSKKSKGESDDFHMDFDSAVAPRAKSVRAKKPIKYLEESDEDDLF
T5 sequence (P0AES4 whole entry): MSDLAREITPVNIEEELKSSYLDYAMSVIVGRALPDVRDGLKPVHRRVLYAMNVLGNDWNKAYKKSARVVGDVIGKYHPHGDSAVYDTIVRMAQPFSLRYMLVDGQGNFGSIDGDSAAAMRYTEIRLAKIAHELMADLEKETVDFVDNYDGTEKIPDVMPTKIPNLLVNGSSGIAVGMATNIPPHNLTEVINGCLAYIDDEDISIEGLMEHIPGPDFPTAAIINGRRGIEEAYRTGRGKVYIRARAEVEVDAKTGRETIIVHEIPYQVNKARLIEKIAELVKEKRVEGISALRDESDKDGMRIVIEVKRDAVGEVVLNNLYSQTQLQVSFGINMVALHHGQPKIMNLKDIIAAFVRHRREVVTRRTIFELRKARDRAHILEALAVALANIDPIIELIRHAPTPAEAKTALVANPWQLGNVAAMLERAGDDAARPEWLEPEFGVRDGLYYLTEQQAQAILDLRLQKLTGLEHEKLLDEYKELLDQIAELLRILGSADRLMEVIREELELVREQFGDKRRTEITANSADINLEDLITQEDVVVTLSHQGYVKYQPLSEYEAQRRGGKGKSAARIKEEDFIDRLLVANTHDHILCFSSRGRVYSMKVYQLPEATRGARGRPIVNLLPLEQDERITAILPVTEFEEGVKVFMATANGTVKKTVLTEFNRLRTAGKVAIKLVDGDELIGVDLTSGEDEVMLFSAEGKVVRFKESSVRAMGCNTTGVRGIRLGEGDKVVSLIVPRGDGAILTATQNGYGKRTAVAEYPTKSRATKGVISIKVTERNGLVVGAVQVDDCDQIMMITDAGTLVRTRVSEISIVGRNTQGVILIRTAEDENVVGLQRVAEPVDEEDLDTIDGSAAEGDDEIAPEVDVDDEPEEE

SMILES	MIC (H. influenzae ATCC 49766)	MIC (E. faecalis ATCC 29212)	MIC [1]	MIC (E. coli ATCC 25922)	MIC (S. aureus BAA-1720)	MIC (S. pneumoniae ATCC 49619)	MIC (P. aeruginosa ATCC 27853)	MIC range [2]	MIC50 [2]	MIC90 [2]	IC50 (S. aureus DNA gyrase; [8])	IC50 (S. aureus DNA gyrase; [9])	IC50 (E. coli Topoisomerase IV; [10])	IC50 (E. coli Topoisomerase IV; [11])	IC50 (E. coli Topoisomerase IV; [12])	IC50 [3, 13]	IC50 [3, 14]	MIC (N. gonorrhoeae WHO L)	MIC (N. gonorrhoeae WHO N)	MIC [4]	other results
COc1cnc2ncc(=O)n([C@H]3CC[C@H](NCc4cc5c(=O)oc6ccc(F)cc6c5[nH]4)CC3)c2c1 [Compound 5, 8-Fluoro-2-({[trans-4-(7-methoxy-2-oxopyrido[2,3-b]pyrazin-1(2H)-yl)cyclohexyl]amino}methyl)[1]benzopyrano[4,3-b]pyrrol-4(1H)-one hydrochloride]	0.12 µg/mL	0.25 µg/mL	8 µg/mL	0.5 µg/mL	1 µg/mL	0.5 µg/mL	4 µg/mL	0.016 to 0.25 µg/mL	0.12 µg/mL	0.25 µg/mL	160 nM	170 nM	140 nM	120 nM	160 nM	80 nM	60 nM	0.25 µg/mL	0.12 µg/mL	≤ 0.06 µg/mL	IC50 (S. aureus DNA gyrase; average of two replicate experiments, read-out: IC50 S. aureus Gyrase Supercoiling (average)): 170 nM; IC50 ([3]; average of two replicate experiments, read-out: IC50 S. aureus Topoisomerase IV decatenation (average)): 70 nM; MIC [5]: 0.125 µg/mL; MIC (N. gonorrhoeae WHO K): 0.25 µg/mL; IC50 (Human Topoisomerase II; [15]): 9120 nM and 9000 nM; IC50 (Human Topoisomerase II; [16]): 5450 nM; IC50 (Human Topoisomerase II; [17]): 12800 nM; MIC50 [6]: 0.5 µg/mL; MIC90 [6]: 2 µg/mL; MIC [6]: 0.25 to 4 µg/mL; MIC50 [7]: 1 µg/mL; MIC90 [7]: 4 µg/mL; MIC [7]: 0.25 to 8 µg/mL; MIC (E. coli TolC- mutant): ≤ 0.016 µg/mL; MIC (S. aureus ATCC 29213; [18]): 0.5 µg/mL; IC50 (E. coli DNA gyrase; [19]): 100 nM; IC50 (E. coli DNA gyrase; [20]): 90 nM; IC50 (E. coli DNA gyrase; [21]): 100 nM
O=C1COc2ncc(F)cc2N1[C@H]1CC[C@H](NCc2cc3c(=O)oc4ccc(F)cc4c3[nH]2)CC1 [Compound 1, 8-fluoro-2-({[trans-4-(7-fluoro-2-oxo-2,3-dihydro-1H-pyrido[2,3-b][1,4]oxazin-1-yl)cyclohexyl]amino}methyl)[1]benzopyrano[4,3-b]pyrrol-4(1H)-one]	0.25 µg/mL (≈ 0.52 µM)	2 µg/mL (≈ 4.16 µM)	4 µg/mL (≈ 8.33 µM)	0.5 µg/mL (≈ 1.04 µM)	0.5 µg/mL (≈ 1.04 µM)	0.5 µg/mL (≈ 1.04 µM)	2 µg/mL (≈ 4.16 µM)	0.016 to 0.12 µg/mL	0.12 µg/mL (≈ 0.25 µM)	0.12 µg/mL (≈ 0.25 µM)	250 nM	310 nM	1380 nM	1350 nM	1420 nM	2200 nM	2300 nM	0.12 µg/mL (≈ 0.25 µM)	0.06 µg/mL (≈ 0.125 µM)	≤ 0.06 µg/mL	IC50 (S. aureus DNA gyrase; IC50 S. aureus Gyrase Supercoiling (average), average of two replicate experiments): 280 nM; IC50 [3]: 2250 nM; MIC [5]: 0.06 µg/mL (≈ 0.125 µM); MIC (N. gonorrhoeae WHO K): 0.12 µg/mL (≈ 0.25 µM); IC50 (Human Topoisomerase II; [15]): 98000 nM; IC50 (Human Topoisomerase II; [16]): 96000 nM; IC50 (Human Topoisomerase II; [17]): 99000 nM; MIC50 [6]: 0.03 µg/mL (≈ 0.0624 µM); MIC90 [6]: 0.25 µg/mL (≈ 0.52 µM); MIC [6]: 0.03 to 0.25 µg/mL (≈ 0.0624 to 0.52 µM); MIC50 [7]: 1 µg/mL (≈ 2.08 µM); MIC90 [7]: 2 µg/mL (≈ 4.16 µM); MIC [7]: 0.03 to 16 µg/mL (≈ 0.0624 to 33.3 µM); MIC (E. coli TolC- mutant): ≤ 0.016 µg/mL; MIC (S. aureus ATCC 29213; [18]): 0.25 µg/mL (≈ 0.52 µM); MIC (S. aureus ATCC 29213; ATCC29213, S. aureus ATCC29213, ref strain, S4 File): 0.25 µg/mL (≈ 0.52 µM); IC50 (E. coli DNA gyrase; [19]): 250 nM; IC50 (E. coli DNA gyrase; [20]): 340 nM; IC50 (E. coli DNA gyrase; [21]): 160 nM
